Blank lines part the entries; values can stand above or below the compound they belong to. [cPNA-N] = chiral peptide nucleic acid unit: glycyl-D-proline with cis-4-nucleobase (N: the base); {LysNH2} = C-terminal L-lysinamide cap
Key:
Solubility in water = assay type: physicochemical
Sequence ID No. 3 = assay: Tm of mixed-base cPNA hybridised with complementary oligonucleotide Sequence ID No. 3; assay type: binding
From the text: (§1) All four bases found in DNA were introduced into the glycyiproline building units with the cis-D configuration and from these mixed cPNAs containing all four nucleobases have been made. The sequence GTAGATCACT, capped at its C-terminus with L-lysinamide was synthesized, and its binding properties with oligonucleotides investigated. Since it is important to determine the preferred orientation of binding of these novel CPNAs to oligonucleotides, both of the possible complementary oligonucleotides were prepared, i.e. Sequence ID No. 2, and Sequence ID No. 3, and hybridised with the chiral PNA.
(§2) All the Tm measurements were carried out on a Varian CARY 13 UV spectrophotometer equipped with a temperature control system. […] The sample for Tm measurement was prepared by mixing calculated amounts of stock oligonucleotide and nucleopeptide solutions together and the calculated amounts of NaCl and sodium phosphate buffer (pH 7.0) were then added as stock solutions and the final volumes were adjusted to 3.0 ml by addition of water. […] The OD260 was recorded in steps from 5-95° C. (heater temperature) with a temperature increment of 0.25-0.5° C./min, The results were normalised by dividing the absorbance at each temperature by the initial absorbance. […] The melting temperatures were determined from the maxima of the first derivative plots of the normalised OD260 against temperature. […]

[1] = tested on: complementary oligonucleotides; assay: 1H NMR experiment: mixing cPNA with complementary oligonucleotides (solubility of complex); assay type: physicochemical; conditions: mmolar concentration
Procedure: Following the promising results obtained on the binding is studies of the cPNA with complementary oligonucleotides by Tm measurement, a ^1H NMR experiment was performed on the mixed sequence decamer, H-Gly-D-Pro(cis-4-G)-Gly-D-Pro(cis-4-T)-Gly-D-Pro(cis-4-A)-Gly-D-Pro(cis-4-G)-Gly-D-Pro(cis-4-A)-Gly-D-Pro(cis-4-T)-Gly-D-Pro(cis-4-C)-Gly-D-Pro(cis-4-A)-Gly-D-Pro(cis-4-C)-Gly-D-Pro(cis-4-T)-LysNH2, and its complementary oligonucleotides, both in parallel and antiparallel fashion. […] In an attempt to overcome this problem it was decided to synthesise a cPNA analogue, containing a hydrophilic spacer amino acid—namely serine—in place of the glycine spacer in the backbone while retaining the cis-D-configuration of the proline moiety. […] Thus the target molecules were diastereomeric thymine-decamers H-[L-Ser-D-Pro(cis-4-T)]10LysNH2 (“LD-ST10”) and H-[D-Ser-D-Pro(cis-4-T)]10LysNH2 (“DD-ST10”).

Sequence ID No. 2 = assay: Tm of mixed-base cPNA hybridised with complementary oligonucleotide Sequence ID No. 2; assay type: binding
From the text: as §1, §2

dA10 [2] = assay: 1H NMR experiment: mixing DD-ST10 with dA10 (solubility of complex); assay type: physicochemical; conditions: 0.5 mM DD-ST10 in 10% D2O-H2O
Procedure: A ^1H NMR study of a mixture of DD-ST10 and dA10 was attempted.
^1H NMR study of a mixture of DD-ST10 and dA10 was performed on a Bruker AMX 500 spectrometer (500 MHz). The ^1H NMR spectra of DD-ST10 and dA10 were recorded separately (at a concentration of 0.53 mM for the DD-ST10 and 0.67 mM for the dA10 in 10% D2O in H2O).

(dT)10 = assay: Melting curve of 1:1 mixture with (dT)10; assay type: binding
Procedure: (§3) Further investigation of the nature of the cis-D peptide nucleic acid-oligonucleotide interaction was undertaken by determining the melting curve with (dT)10.
All the Tm measurements were carried out on a Varian CARY 13 UV spectrophotometer equipped with a temperature control system. The machine was controlled by a CARY 13 software running on an IBM PS/2 system model 30/286. The sample for Tm measurement was prepared by mixing calculated amounts of stock oligonucleotide and nucleopeptide solutions together and the calculated amounts of NaCl and sodium phosphate buffer (pH 7.0) were then added as stock solutions and the final volumes were adjusted to 3.0 ml by addition of water. The samples were transferred to a 10 mm quartz cell with teflon stopper and equilibrated at the starting temperature for at least 30 min. The OD260 was recorded in steps from 5-95° C. (heater temperature) with a temperature increment of 0.25-0.5° C./min, The results were normalised by dividing the absorbance at each temperature by the initial absorbance. […] The melting temperatures were determined from the maxima of the first derivative plots of the normalised OD260 against temperature. Percent hyperchromicity was calculated from the ratio of the OD260 at the end of experiment to the initial OD260.

poly(dA) = assay: Melting curves (Tm) of 1:1 hybrids of cPNAs with poly(dA); assay type: binding; conditions: for Tm with poly (dA): 1:1 hybrid, 260 nm; for Tm with poly (dA) / % hypochromicity with poly (dA): 150 mM sodium chloride, 10 mM sodium phosphate pH 7.0; for % hypochromicity with poly (dA): from melting curves at 260 nm
Procedure: (§4) The deca-thymine glycyl-proline peptide nucleic acids with cis-L, trans-D and cis-D stereochemistry, and C-terminal L-lysinamide were mixed in 1:1 ratio with poly(rA) and poly(dA) in the presence of 150 mM NaCl and sodium phosphate buffer (10 mM Na^+, pH 7.0) and the Tm determined (FIG. 3). […] The magnitudes of absorbance change were of the order of 30-40%.
FIG. 3. The melting curves of the 1:1 hybrids of (a) H-[Gly-L-Pro(cis-4-T)]10-Lys-NH2, (b) H-[Gly-D-Pro(cis-4-T)]10-Lys-NH2, (c) H-[Gly-D-Pro(trans-4-T)]10-Lys-NH2 with poly(dA) at 150 mM NaCl, 10 mM sodium phosphate, pH 7.0 and (d) poly(dA) alone. The poly(dA) concentration was 10.8 μM dA nucleotide. The melting curves were recorded at 260 nm and the rate of heating was 0.5° C./min.
(§5) All the Tm measurements were carried out on a Varian CARY 13 UV spectrophotometer equipped with a temperature control system. The machine was controlled by a CARY 13 software running on an IBM PS/2 system model 30/286. The sample for Tm measurement was prepared by mixing calculated amounts of stock oligonucleotide and nucleopeptide solutions together and the calculated amounts of NaCl and sodium phosphate buffer (pH 7.0) were then added as stock solutions and the final volumes were adjusted to 3.0 ml by addition of water. The samples were transferred to a 10 mm quartz cell with teflon stopper and equilibrated at the starting temperature for at least 30 min. The OD260 was recorded in steps from 5-95° C. (heater temperature) with a temperature increment of 0.25-0.5° C./min, The results were normalised by dividing the absorbance at each temperature by the initial absorbance. Analysis of the data was performed on a KaleidaGraph software 2.1.3 (Abelbeck Software) running on a Macintosh LC III computer. The OD260 was normalised by dividing with the initial OD260. The melting temperatures were determined from the maxima of the first derivative plots of the normalised OD260 against temperature. Percent hyperchromicity was calculated from the ratio of the OD260 at the end of experiment to the initial OD260.

dA10 [3] = assay: Melting curves (Tm) of hybrids of cPNAs with dA10; assay type: binding; conditions: 260 nm; for Tm with dA10: 150 mM sodium chloride, 10 mM sodium phosphate pH 7.0
Procedure: Although both cis-D and cis-L analogues gave melting curves with poly(dA) and poly(rA), only the cis-D analogue gave a well-defined melting curve with (dA)10, with Tm=61° C., under the same conditions.
as §3, §5

poly(rA) = assay: Melting curves (Tm) of 1:1 hybrids of cPNAs with poly(rA); assay type: binding; conditions: 150 mM sodium chloride, 10 mM sodium phosphate pH 7.0; for Tm with poly (rA): 1:1 hybrid, 260 nm; for % hypochromicity with poly (rA): from melting curves at 260 nm
Procedure: as §4, §5

Compound: O=C(NCC(=O)N1C[C@H](n2cnc3c(NC(=O)c4ccccc4)ncnc32)C[C@@H]1C(=O)Oc1c(F)c(F)c(F)c(F)c1F)OCC1c2ccccc2-c2ccccc21 [compound 10, N-(N-Fluoren-9-ylmethoxycarbonylglycyl)-cis-4-(N6-benzoyladenin-9-yl)-D-proline pentafluorophenyl ester]
melting point: 125 to 130 °C

Compound: O=C(NCC(=O)N1C[C@H](n2ccc(NC(=O)c3ccccc3)nc2=O)C[C@@H]1C(=O)Oc1c(F)c(F)c(F)c(F)c1F)OCC1c2ccccc2-c2ccccc21 [compound 13, N-(N-Fluoren-9-ylmethoxycarbonylglycyl)-cis-4-(N4-benzoylcytosin-1-yl)-D-proline pentafluorophenyl ester]
melting point: 133 to 137 °C

Compound: CC(C)C(=O)Nc1nc2c(ncn2[C@@H]2C[C@H](C(=O)Oc3c(F)c(F)c(F)c(F)c3F)N(C(=O)CNC(=O)OCC3c4ccccc4-c4ccccc43)C2)c(=O)[nH]1 [compound 16, N-(N-Fluoren-9-ylmethoxycarbonylglycyl)-cis-4-(N2-isobutyrylguanin-9-yl)-D-proline pentafluorophenyl ester]
melting point: 146 to 150 °C

Compound: H-Gly-D-Pro(cis-4-G)-Gly-D-Pro(cis-4-T)-Gly-D-Pro(cis-4-A)-Gly-D-Pro(cis-4-G)-Gly-D-Pro(cis-4-A)-Gly-D-Pro(cis-4-T)-Gly-D-Pro(cis-4-C)-Gly-D-Pro(cis-4-A)-Gly-D-Pro(cis-4-C)-Gly-D-Pro(cis-4-T)-Lys-NH2 (GTAGATCACT; all [cPNA-N], 3' {LysNH2}, methylation of C not given here; glycyl-D-proline chiral PNA backbone, free N-terminus)
solubility in water of the cPNA alone (Solubility in water): freely soluble | Tm with complementary oligonucleotide Sequence ID No. 3 (Sequence ID No. 3): 43 °C | behaviour on mixing with complementary oligonucleotides (parallel and antiparallel) [1]: a white precipitate formed immediately | Tm with complementary oligonucleotide Sequence ID No. 2 (Sequence ID No. 2): 47 °C

Compound: H-[D-Ser-D-Pro(cis-4-T)]10LysNH2 [DD-ST10]
behaviour on addition of 20 mol % of dA10 (dA10 [2]): an immediate precipitation occurred

Compound: H-[Gly-D-Pro(cis-4-T)]10-Lys-NH2 [H-[Gly-D-Pro(cis-4-T)]10-LysNH2]
increase in absorbance at 260 nm on heating, 1:1 mixture with (dT)10 ((dT)10): no significant increase | Tm with poly (dA) (poly(dA)): 70 °C | binding with poly(dA), comparison of the 10 mers (poly(dA); 10 mers derived from (6a), (6b) and (6c)): binds most strongly | % hypochromicity with poly (dA) (poly(dA)): 28% | Tm with dA10 (dA10 [3]): 61 °C | hyperchromicity of 1:1 mixture with (dA)10 (dA10 [3]; on heating): ca. 20% | Tm with poly (rA) (poly(rA)): 72 °C | % hypochromicity with poly (rA) (poly(rA)): 45%

Compound: H-[Gly-D-Pro(trans-4-T)]10-Lys-NH2 [H-[Gly-D-Pro(trans-4-T)]10-LysNH2]
Tm with poly (dA) (poly(dA)): No melting | solubility in water compared with the other T10 cPNAs (Solubility in water): considerably more soluble than the other two | Tm with dA10 (dA10 [3]): No melting | Tm with poly (rA) (poly(rA)): No melting

Compound: H-[Gly-L-Pro(cis-4T)]10-Lys-NH2 [H-[Gly-L-Pro(cis-4-T)]10-LysNH2]
Tm with poly (dA) (poly(dA)): 69 °C | % hypochromicity with poly (dA) (poly(dA)): 40% | Tm with dA10 (dA10 [3]): 42 °C | Tm with dA10 (dA10 [3]; listed as cis-L analogue): near room temperature | Tm with poly (rA) (poly(rA)): 73 °C | % hypochromicity with poly (rA) (poly(rA)): 36%

Next, values leading:

melting point: > 200 °C
Compound: Cc1cn([C@H]2C[C@@H](C(=O)O)N(C(=O)CNC(=O)OCC3c4ccccc4-c4ccccc43)C2)c(=O)[nH]c1=O [5a, N-(N-Fluoren-9-ylmethoxycarbonylglycyl)-cis-4-(thymin-1-yl)-L-proline]

melting point: > 200 °C
Compound: Cc1cn([C@H]2C[C@H](C(=O)O)N(C(=O)CNC(=O)OCC3c4ccccc4-c4ccccc43)C2)c(=O)[nH]c1=O [5b, N-(N-Fluoren-9-ylmethoxycarbonylglycyl)-trans-4-(thymin-1-yl)-D-proline]

melting point: > 200 °C
Compound: Cc1cn([C@@H]2C[C@H](C(=O)O)N(C(=O)CNC(=O)OCC3c4ccccc4-c4ccccc43)C2)c(=O)[nH]c1=O [5c, N-(N-Fluoren-9-ylmethoxycarbonylglycyl)-cis-4-(thymin-1-yl)-D-proline]

melting point: 124 to 126 °C
Compound: Cc1cn([C@H]2C[C@@H](C(=O)Oc3c(F)c(F)c(F)c(F)c3F)N(C(=O)CNC(=O)OCC3c4ccccc4-c4ccccc43)C2)c(=O)[nH]c1=O [6a, N-(N-Fluoren-9-ylmethoxycarbonylglycyl)-cis-4-(thymin-1-yl)-L-proline pentafluorophenyl ester]

melting point: 115 to 124 °C
Compound: Cc1cn([C@H]2C[C@H](C(=O)Oc3c(F)c(F)c(F)c(F)c3F)N(C(=O)CNC(=O)OCC3c4ccccc4-c4ccccc43)C2)c(=O)[nH]c1=O [6b, N-(N-Fluoren-9-ylmethoxycarbonylglycyl)-trans-4-(thymin-1-yl)-D-proline pentafluorophenyl ester]

melting point: 122 to 126 °C
Compound: Cc1cn([C@@H]2C[C@H](C(=O)Oc3c(F)c(F)c(F)c(F)c3F)N(C(=O)CNC(=O)OCC3c4ccccc4-c4ccccc43)C2)c(=O)[nH]c1=O [6c, N-(N-Fluoren-9-ylmethoxycarbonylglycyl)-cis-4-(thymin-1-yl)-D-proline pentafluorophenyl ester]
